The values that follow come from US8946234B2, “Halogen-substituted compounds” (Bayer CropScience AG, priority 2008, dated 2015).

Data set [1] deals with Phaedon cochleariae. Kind of data set: Phaedon test (PHAECO spray treatment). The note with it: foliar, application rate 500 g/ha, sprayed Chinese cabbage leaf discs, mustard beetle larvae, 100% = all larvae killed, read-out: effect in %. The class given is in vivo. As for the experimental part:
[table] To produce a suitable active ingredient preparation, part by weight of active ingredient is mixed with the stated amounts of solvents and emulsifier, and the concentrate is diluted to the desired concentration with emulsifier-containing water. Discs of Chinese cabbage leaves (Brassica pekinensis) are sprayed with an active ingredient preparation of the desired concentration and, after drying, populated with larvae of the mustard beetle (Phaedon cochleariae). After the desired time, the effect in % is determined. Here, 100% means that all of the beetle larvae have been killed; 0% means that no beetle larvae have been killed.

Data set [2] can be described thus: logP by HPLC on a C18 phase inversion column, EEC Directive 79/831 Annex V.A8, method a) (Agilent 1100, 10-95% acetonitrile in 4.25 min). It is filed as physicochemical. Conditions: read-out: logP. The essentials: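 Reversed-phase C18 HPLC (50×4.6 mm, 1.8 micron), 55 °C, 2.0 ml/min, acetonitrile/water with formic acid. Linear gradient 10% to 95% acetonitrile over 4.25 min, then 95% for 1.25 min. logP derived from retention per EEC Directive 79/831 Annex V.A8; MS detection.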

Data set [3] in a line: log P from HPLC-MS, no method note printed. The class given is physicochemical. Conditions: method not given.
Where [4] appears, read: HPLC phase inversion (reversed-phase) C18 column, HPLC method a), eluent acetonitrile/water with formic acid.
Setting [5] is: HPLC phase inversion (reversed-phase) C18 column, HPLC, method a).

For `O=C(NC1CC1)c1cc(NC(=O)c2cnc(C(F)(F)C(F)(F)F)nc2C(F)F)ccc1Cl` [Ib-27, N-[4-Chloro-3-(cyclopropylcarbamoyl)phenyl]-4-(difluoromethyl)-2-(pentafluoroethyl)pyrimidine-5-carboxamide], the pest or weed control at 500 g/ha in data set [1] was ≥ 80%. The chromatographic logP in data set [2] (setting [4]) turned out to be 2.92. Turning to `Cn1nc(-c2ccc(C(F)(F)F)cc2)c(C(F)(F)F)c1C(=O)O` [1-Methyl-4-(trifluoromethyl)-3-[4-(trifluoromethyl)phenyl]-1H-pyrazole-5-carboxylic acid], the chromatographic logP in data set [3] worked out at 1.24.

`Cn1nc(C(F)(F)C(F)(F)F)c(C(F)(F)F)c1SCc1ccccc1` [5-(Benzylsulphanyl)-1-methyl-3-(pentafluoroethyl)-4-(trifluoromethyl)-1H-pyrazole] had a chromatographic logP in data set [3] of 5.

`COC(=O)c1c(I)c(OC(F)F)nn1C` [Methyl 3-(difluoromethoxy)-4-iodo-1-methyl-1H-pyrazole-5-carboxylate] yielded a chromatographic logP in data set [3] of 2.69. The same measure, in the same setting: the figure for `Cn1nc(OCC(F)(F)F)c(F)c1C(=O)O` [4-Fluoro-1-methyl-3-(2,2,2-trifluoroethoxy)-1H-pyrazole-5-carboxylic acid] is 1.83; for `COC(=O)c1cc(OC(F)F)nn1C` [Methyl-3-(difluoromethoxy)-1-methyl-1H-pyrazole-5-carboxylate] it is 2.04. Same read-out and setting: the figure for `Cn1nc(OCC(F)(F)F)c(Cl)c1C(=O)O` [4-Chloro-1-methyl-3-(2,2,2-trifluoroethoxy)-1H-pyrazole-5-carboxylic acid] is 2; for `COC(=O)c1c(Cl)c(OCC(F)(F)F)nn1C` [Methyl 4-chloro-1-methyl-3-(2,2,2-trifluoroethoxy)-1H-pyrazole-5-carboxylate] it is 3.08. In the case of `Cn1nc(C(F)(F)C(F)(F)F)c(I)c1C(=O)Nc1ccc(Cl)c(C(=O)NC2CC2)c1` [Ik-4, N-[4-Chloro-3-(cyclopropylcarbamoyl)phenyl]-1-methyl-3-(pentafluoroethyl)-4-iodo-1H-pyrazole-5-carboxamide], the pest or weed control at 500 g/ha in data set [1] was ≥ 80%. Besides, the chromatographic logP in data set [2] (setting [4]) is 3.16; in data set [2] (setting [5]), 3.15. In the case of `CCOC(=O)c1c(C(F)(F)F)c(C(O)C2CC2)nn1C` (stereo not drawn) [Ethyl 3-[cyclopropyl(hydroxy)methyl]-1-methyl-4-(trifluoromethyl)-1H-pyrazole-5-carboxylate], the chromatographic logP in data set [3] stood at 2.38. `CCOC(=O)c1c(C(F)(F)F)c(C(C)(C)F)nn1C` [Ethyl 3-(2-fluoropropan-2-yl)-1-methyl-4-(trifluoromethyl)-1H-pyrazole-5-carboxylate] had a chromatographic logP in data set [3] of 3.55.

In data set [3], `Cn1nc(C(O)C2CC2)c(C(F)(F)F)c1C(=O)O` (stereo not drawn) [3-[Cyclopropyl(hydroxy)methyl]-1-methyl-4-(trifluoromethyl)-1H-pyrazole-5-carboxylic acid] came in with a chromatographic logP of 0.72.

On to `CCOC(=O)c1c(I)c(C2CC2)nn1C` [Ethyl 3-cyclopropyl-4-iodo-1-methyl-1H-pyrazole-5-carboxylate], for which the chromatographic logP in data set [3] was 3.56.

In data set [3], `COC(=O)c1c(Br)c(OC(F)F)nn1C` [Methyl 4-bromo-3-(difluoromethoxy)-1-methyl-1H-pyrazole-5-carboxylate] returned a chromatographic logP of 2.62. The same measure, in the same setting: to `CCOC(=O)c1c(C(F)(F)F)c(C(C)(C)O)nn1C` [Ethyl 3-(2-hydroxypropan-2-yl)-1-methyl-4-(trifluoromethyl)-1H-pyrazole-5-carboxylate] belongs 2.33.

`O=C(NC1CC1)c1cc(NC(=O)c2cnc(OCC(F)(F)F)cc2C(F)(F)F)ccc1Cl` [Ij-1, N-[4-Chloro-3-(cyclopropylcarbamoyl)phenyl]-6-(2,2,2-trifluoroethoxy)-4-(trifluoromethyl)pyridine-3-carboxamide]: in data set [1], the pest or weed control at 500 g/ha was ≥ 80%. Moreover, the chromatographic logP in data set [2] (setting [4]) turned out to be 3.02.

Turning to `Cn1nc(C(F)F)c(C(F)(F)F)c1C(=O)O` [3-(Difluoromethyl)-1-methyl-4-(trifluoromethyl)-1H-pyrazole-5-carboxylic acid], the chromatographic logP in data set [3] turned out to be 1.1. Still for that read-out and setting: the figure for `O=C(O)c1cnc(C(F)(F)F)nc1-c1ccccn1` [4-(Pyridin-2-yl)-2-(trifluoromethyl)pyrimidine-5-carboxylic acid] is 1.5; for `Cn1nc(OCC(F)(F)F)c(Br)c1C(=O)O` [4-Bromo-1-methyl-3-(2,2,2-trifluoroethoxy)-1H-pyrazole-5-carboxylic acid] it is 2.03. On the same count and under the same terms, to `COC(=O)c1c(I)c(OCC(F)(F)F)nn1C` [Methyl 4-iodo-1-methyl-3-(2,2,2-trifluoroethoxy)-1H-pyrazole-5-carboxylate] belongs 3.17. Same read-out and setting: to `O=C(O)c1sc(C(F)(F)C(F)(F)F)nc1C(F)(F)F` [2-(Pentafluoroethyl)-4-(trifluoromethyl)-1,3-thiazole-5-carboxylic acid] belongs 2.06; to `CCOC(=O)c1cnc(C(F)(F)F)nc1-c1ccccn1` [Ethyl 4-(pyridin-2-yl)-2-(trifluoromethyl)pyrimidine-5-carboxylate], 3.09.

Consider `C=Cc1c(C(F)(F)C(F)(F)F)nn(C)c1C(=O)Nc1ccc(Cl)c(C(=O)NC2CC2)c1` [Ik-5, N-[4-Chloro-3-(cyclopropylcarbamoyl)phenyl]-1-methyl-3-(pentafluoroethyl)-4-ethenyl-1H-pyrazol-5-carboxamide], for which, in data set [1], the pest or weed control at 500 g/ha was ≥ 80%. For the same molecule, the chromatographic logP in data set [2] (setting [4]) and in data set [2] (setting [5]) was 3.11 each time. In data set [3], `COC(=O)c1cc(OCC(F)(F)F)nn1C` [Methyl 1-methyl-3-(2,2,2-trifluoroethoxy)-1H-pyrazole-5-carboxylate] displayed a chromatographic logP of 2.61. Consider `Cn1nc(OCC(F)(F)F)cc1C(=O)O` [1-Methyl-3-(2,2,2-trifluoroethoxy)-1H-pyrazole-5-carboxylic acid], for which the chromatographic logP in data set [3] was 1.65. The same measure, in the same setting: to `CCOC(=O)c1cnc(C(F)(F)C(F)(F)F)nc1C(F)(F)C(F)(F)F` [Ethyl 2,4-bis(pentafluoroethyl)pyrimidine-5-carboxylate] belongs 4.41. Turning to `O=C(NC1CC1)c1cc(NC(=O)c2cnc(OCC(F)(F)F)nc2C(F)(F)F)ccc1Cl` [Ib-2], in data set [1], the pest or weed control at 500 g/ha was ≥ 80%. Also, the chromatographic logP in data set [2] (setting [4]) stood at 2.76. Turning to `Cn1nc(C(F)(F)C(F)(F)F)c(I)c1C(=O)O` [1-Methyl-3-pentafluoroethyl-4-iodo-1H-pyrazole-5-carboxylic acid], the chromatographic logP in data set [3] came to 2.33. On the same count and under the same terms, to `O=C(O)c1nccc(Cl)c1C(F)(F)F` [4-Chloro-3-(trifluoromethyl)pyridine-2-carboxylic acid] belongs 1.16; to `COC(=O)c1c(C(F)(F)F)c(-c2ccc(C(F)(F)F)cc2)nn1C` [Methyl 1-methyl-4-(trifluoromethyl)-3-[4-(trifluoromethyl)phenyl]-1H-pyrazole-5-carboxylate], 4.14; to `COC(=O)c1c(Br)c(OCC(F)(F)F)nn1C` [Methyl 4-bromo-1-methyl-3-(2,2,2-trifluoroethoxy)-1H-pyrazole-5-carboxy late], 3.14. On the same count and under the same terms, to `CCOC(=O)c1c(C(F)(F)F)c(C=O)nn1C` [Ethyl 3-formyl-1-methyl-4-(trifluoromethyl)-1H-pyrazole-5-carboxylate] belongs 2.4.
